Where “and” joins values, the source holds several entries; their conditions need not be identical. Identical values can stand only once. Like-named read-outs stand apart in the source and are kept apart here.
Legend:
[1] = MRI of D2O/H2O exchange across a membrane in the membrane cell (Example 1A, FIG. 1); assay type: physicochemical; conditions: Water/D2O chamber signal ratio vs time, best fit exponential; one chamber initially D2O, the other H2O
Text: D2O gives no signal in conventional 1H MRI, and thus acts as a negative marker. The diffusional permeability can then be calculated from the signal time-course using conventional mass transport equations assuming that signal intensity is proportional to water concentration.
FIG. 1 provides the results of experiments on D2O-concentration related signal changes in two chambers, one initially containing D2O, the other with H2O.

[2] = MRI of D2O/H2O exchange across a membrane in the membrane cell (Example 1B, FIG. 2); assay type: physicochemical; conditions: signal difference between chambers over 64 minutes; upper chamber deuterium oxide saline, lower water saline; 12 micron pore-size polycarbonate membrane
Text: A 5 mm diameter membrane tissue sample is mounted between two layers of 125 micron pore-size nylon mesh. The tissue sample assembly is then mounted in the central recess of the cell base and the cell cap is tightened onto the base using three M2.5 nylon screws. O-rings mounted into the cap and base prevent fluid leakage between the upper and lower central chambers. The central well of the base is filled with water or saline water with the cell inverted. The base well is then sealed with impermeable adhesive tape. The central well of the upper chamber is filled with deuterium oxide (D2O) or D2O saline and sealed with impermeable adhesive tape as before.
D2O gives no signal in conventional ^1H MRI, and thus acts as a negative marker. The diffusional permeability can then be calculated from either the mean signal time-courses in the upper and lower chambers using conventional mass transport equations assuming that signal intensity is proportional to water concentration.
FIG. 2 provides the results of experiments on D2O-concentration related signal changes in two chambers, one initially containing D2O, the other with H2O. Cross-sectional T1-weighted magnetic resonance image through the membrane cell during permeability testing of a single layer of 12 micron pore-size polycarbonate membrane. Images at (a) time=0 minutes and (b) 64 minutes are shown. Images were acquired every 256 seconds. […]

[3] = MRI of gadolinium chelate diffusion across a membrane (Example 3, FIG. 5); assay type: physicochemical; conditions: exponential fit to signal difference between chambers; upper chamber initially 1 mM gadolinium chelate, lower chamber water
Protocol: FIGS. 5A-5C provide the results of experiments on gadolinium chelate-concentration related signal changes in two chambers. (a) MR image of the membrane cell with the upper chamber initially containing 1 mM gadolinium chelate (Prohance® (gadoteridol), Bracco Diagnostics Inc., Princeton N.J.) and the lower chamber containing water. Signal enhancement due to the gadolinium chelate can be indicated by red false coloring. (b) the mean signal time course within the regions of interest indicated by black boxes in (a). The signal difference between the chambers has been fitted to an exponential and has a time-constant of approximately 158 minutes. The concentration time course in each chamber would require signal-concentration calibration. […] This effect would not be readily detected by non-imaging methods.
Gadolinium chelates of various molecular weights (e.g. […]) may be used as MR detectable tracers which alter the T1 relaxation time of the surrounding water and thus imparts contrast to the image. […] If the upper chamber is initially filled with a dilute aqueous solution of the chelate, and the lower chamber is filled with water, the diffusional permeability of the membrane may be estimated from the time course of either (a) the mean signal within each chamber or (b) the spatial variation of chelate above and below the membrane as determined by calibrated MR images. […]

[4] = from mean signal ratio between chambers; one saturated with oxygen, the other with argon; fresh Bruch's membrane
Text: (§1) This sample assembly is then inserted in the upper circular recess of the membrane cell base. The membrane cell washer is then placed over the sample assembly and the membrane cell cap screwed onto the base, tightening the washer onto the sample assembly. The upper central well in the membrane cell cap is then filled with inert gas (e.g. argon or nitrogen) saturated aqueous solution and sample placed in the magnetic resonance imaging system.
(§2) Sequential T1-weighted magnetic resonance images are acquired of a midline slice through the membrane cell, parallel to the long-axis of the cell.
The generalized exponential decay to equilibrium in two chamber system, including systematic drift function F(t) is given by: SA(t)=F(t)[SA(∞)+(SA(0)−SA(∞))e^−t/Tc] SB(t)=F(t)[SB(∞)+(SB(∞)−SB(0))e^−t/Tc] Taking the ration of the two signals eliminates the systematic drift allowing the time-constant for the transport across the membrane to be determined from the MRI signal time-course, as follows: […]

[5] = from mean signal ratio between chambers; one saturated with oxygen, the other with argon; 0.4 μm polycarbonate film
Text: as §1, §2
The generalized exponential decay to equilibrium in two chamber system, including systematic drift function F(t) is given by: SA(t)=F(t)[SA(∞)+(SA(0)−SA(∞))e^−t/Tc] SB(t)=F(t)[SB(∞)+(SB(∞)−SB(0))e^−t/Tc] Taking the ration of the two signals eliminates the systematic drift allowing the time-constant for the transport across the membrane to be determined from the MRI signal time-course, as follows:
The dividing membrane was 0.4 μm pore-size polycarbonate film.

Q: With `[2H]O[2H]` [D2O, deuterium oxide] as the compound, how does the “time constant for the exchange” value [1] read?
A: approximately 17.3 minutes

Q: And the “time-constant of the fitted exponential decay (index of membrane permeability)” value [2]?
A: 40.7 min

Q: With `CC(O)CN1CCN(CC(=O)[O-])CCN(CC(=O)[O-])CCN(CC(=O)[O-])CC1.[Gd+3]` (centres unmarked) [Prohance, gadoteridol] as the compound, how does the time-constant [3] read?
A: approximately 158 minutes

Q: For `O=O` [oxygen], which time-constant [4] is on record?
A: 67.7 min

Q: And the time-constant [5]?
A: 59.8 min and 54.9 min
